Series [1] has as its system Plasmodium falciparum. Description: Antimalarial activity against Plasmodium falciparum 3D7 infected in human erythrocytes assessed as parasite growth inhibition after 72 hrs by SYBR Green I assay. The format is functional, organism-based. Conditions: 3D7, 72 h.
The test system of series [2] is CCRF-CEM. Description: Cytotoxicity against human CCRF-CEM cells assessed as cell viability after 72 hrs by resazurin assay. The format is functional, cell-based.
Series [3] in a line: Cytotoxicity against human CEM/ADR5000 cells assessed as cell viability after 72 hrs by resazurin assay. Conditions: ADR5000, 72 h. It counts as functional, cell-based. On the technique in general: The colour change of resazurin is a common sign of viable cells or microbes.
Series [4] deals with CCRF-CEM. Nature of the series: Resistance index, ratio of IC50 for human CEM/ADR5000 cells to IC50 for human CCRF-CEM cells. The format is functional.
Another series deals with Human betaherpesvirus 5. Nature of the series: Antiviral activity against Human cytomegalovirus AD169 expressing GFP infected in HFF assessed as inhibition of viral replication after 7 days. It counts as functional, organism-based.
Series [5] can be described thus: Stability of the compound in freezing/thawing condition. It counts as physicochemical.
The nature of series [6]: Stability of the compound up to 56 degC. The format is physicochemical.
Series [7] has as its system HFF. Description: Cytotoxicity against HFF up to 10 uM by light microscopic analysis. It counts as cell-based. Conditions: human.
The subject of series [8] is HFF. Nature of the series: Cytotoxicity against HFF up to 10 uM by fluorescence microscopic analysis. The conditions noted are these: human. The format is cell-based.
A short description of series [9]: Potency index, ratio of doxorubicin IC50 to compound IC50 for human CEM/ADR5000 cells. It counts as functional.
In a further series the test system is ADR5000. Description: Cytotoxicity against human CEM/ADR5000 cells assessed as cell viability at 400 uM after 72 hrs by resazurin assay. It counts as functional, cell-based.
For series [10], the system named is Plasmodium falciparum. Nature of the series: Antimalarial activity against Plasmodium falciparum NF54 infected in human erythrocytes after 48 hrs by [3H]hypoxanthine incorporation assay. It counts as functional, organism-based.
[11] abbreviates: Human betaherpesvirus 5, AD169, 168 h, read-out: IC50.

Calls of active or inactive are those of the source. The calls are words filed in the database; no cut-off is given here. Bounds are passed on as bounds.

With `C[C@H]1[C@H](OC(=O)CCC(=O)O[C@@H]2O[C@@H]3O[C@@]4(C)CC[C@H]5[C@H](C)CC[C@@H]([C@H]2C)[C@@]35OO4)O[C@@H]2O[C@@]3(C)CC[C@H]4[C@H](C)CC[C@@H]1[C@@]24OO3`, the half-inhibitory concentration (IC50) came out at 2.6 nM in the series on Plasmodium falciparum [1], 2750 nM with CCRF-CEM [2], 2790 nM in [3] and 1040 nM in the series with Human betaherpesvirus 5 (setting [11]). In addition, the “Ratio IC50” value with CCRF-CEM [4] amounted to 1.01.
In the case of `C[C@H]1[C@H](OC(=O)CCC(=O)OCC(C[C@H]2O[C@@H]3O[C@@]4(C)CC[C@H]5[C@H](C)CC[C@@H]([C@H]2C)[C@@]35OO4)C[C@H]2O[C@@H]3O[C@@]4(C)CC[C@H]5[C@H](C)CC[C@@H]([C@H]2C)[C@@]35OO4)O[C@@H]2O[C@@]3(C)CC[C@H]4[C@H](C)CC[C@@H]1[C@@]24OO3`, the IC50 turned out to be 12.8 nM with Plasmodium falciparum [1], 2 nM in the series with CCRF-CEM [2], 200 nM in [3] and 40 nM in the series with Human betaherpesvirus 5 (setting [11]). For the same molecule, the “Ratio IC50” value was found to be 100 in the series on CCRF-CEM [4] and 3 in series [9]. Also, the Stability entry in series [5] and in [6] was “Stable” in each case. The Activity result in the series on HFF [7] and in the series with HFF [8] was “Non-toxic” throughout.
`C[C@H]1[C@@H](OCC(C[C@H]2O[C@@H]3O[C@@]4(C)CC[C@H]5[C@H](C)CC[C@@H]([C@H]2C)[C@@]35OO4)C[C@H]2O[C@@H]3O[C@@]4(C)CC[C@H]5[C@H](C)CC[C@@H]([C@H]2C)[C@@]35OO4)O[C@@H]2O[C@@]3(C)CC[C@H]4[C@H](C)CC[C@@H]1[C@@]24OO3`: the half-inhibitory concentration (IC50) in the series with Plasmodium falciparum [1] is 12.8 nM; in the series with CCRF-CEM [2], 2 nM; in series [3] it was 490 nM; with Human betaherpesvirus 5, “ND(toxic)”. The “Ratio IC50” value with CCRF-CEM [4] came to 245; in series [9] it was 3. The Activity result with HFF [7] and in the series with HFF [8] was “Non-toxic” in each case.
Turning to `C[C@@H]1CC[C@H]2[C@@H](C)C(=O)O[C@@H]3O[C@@]4(C)CC[C@@H]1[C@]32OO4` [ARTEMISININ], the “Ratio IC50” value in the series with CCRF-CEM [4] amounted to 0.73. Further, the 50% inhibitory concentration (IC50) with Human betaherpesvirus 5 (setting [11]) was more than 10000 nM.
Consider `C[C@H]1[C@@H](CCCO)O[C@@H]2O[C@@]3(C)CC[C@H]4[C@H](C)CC[C@@H]1[C@@]24OO3`, for which the concentration for half-maximal inhibition (IC50) came out at 11.6 nM in the series with Plasmodium falciparum [1] and 174000 nM with CCRF-CEM [2]. The outcome in the series with ADR5000 was inactive.
Take `C[C@H]1[C@H](OC(=O)CCC(=O)NCCCCCCCCNC(=O)CCC(=O)O[C@@H]2O[C@@H]3O[C@@]4(C)CC[C@H]5[C@H](C)CC[C@@H]([C@H]2C)[C@@]35OO4)O[C@@H]2O[C@@]3(C)CC[C@H]4[C@H](C)CC[C@@H]1[C@@]24OO3`: in the series with Human betaherpesvirus 5 (setting [11]), the half-maximal inhibitory concentration (IC50) is more than 10000 nM.
As for `C[C@H]1[C@H](OC(=O)CCC(=O)O)O[C@@H]2O[C@@]3(C)CC[C@H]4[C@H](C)CC[C@@H]1[C@@]24OO3` [ARTESUNATE], the IC50 amounted to 9 nM with Plasmodium falciparum [1], 70 nM in the series with CCRF-CEM [2], 190 nM in series [3] and 3800 nM with Human betaherpesvirus 5 (setting [11]). For the same molecule, the “Ratio IC50” value in the series with CCRF-CEM [4] is recorded as 2.71.
For `C[C@H]1[C@@H](CC(CO)C[C@H]2O[C@@H]3O[C@@]4(C)CC[C@H]5[C@H](C)CC[C@@H]([C@H]2C)[C@@]35OO4)O[C@@H]2O[C@@]3(C)CC[C@H]4[C@H](C)CC[C@@H]1[C@@]24OO3` (stereo not given in full), the half-maximal inhibitory concentration (IC50) in the series with Plasmodium falciparum [1] amounted to 1.1 nM; in the series on Plasmodium falciparum [10], 0.87 nM; with CCRF-CEM [2], 20 nM; in [3] it was 50 nM. In addition, in the series with CCRF-CEM [4], the “Ratio IC50” value is 2.5.
For the molecule `COc1cccc2c1C(=O)c1c(O)c3c(c(O)c1C2=O)C[C@@](O)(C(=O)CO)C[C@@H]3O[C@H]1C[C@H](N)[C@H](O)[C@H](C)O1` [DOXORUBICIN], the 50% inhibitory concentration (IC50) stood at 3 nM with CCRF-CEM [2] and 1610 nM in [3]. Moreover, the “Ratio IC50” value with CCRF-CEM [4] is 536.67.
Consider `C[C@H]1[C@@H](CCCOC(=O)C[C@H]2O[C@@H]3O[C@@]4(C)CC[C@H]5[C@H](C)CC[C@@H]([C@H]2C)[C@@]35OO4)O[C@@H]2O[C@@]3(C)CC[C@H]4[C@H](C)CC[C@@H]1[C@@]24OO3`, for which the IC50 was found to be 2.6 nM with Plasmodium falciparum [1], 90 nM with CCRF-CEM [2], 200 nM in series [3] and 310 nM with Human betaherpesvirus 5 (setting [11]). Further, the “Ratio IC50” value with CCRF-CEM [4] was 2.22; in series [9], 3.
Take `C[C@H]1[C@H](OC(=O)CCC(=O)NCC(O)CNC(=O)CCC(=O)O[C@@H]2O[C@@H]3O[C@@]4(C)CC[C@H]5[C@H](C)CC[C@@H]([C@H]2C)[C@@]35OO4)O[C@@H]2O[C@@]3(C)CC[C@H]4[C@H](C)CC[C@@H]1[C@@]24OO3` (stereo not given in full): in the series with Human betaherpesvirus 5 (setting [11]), the half-inhibitory concentration (IC50) came to 2070 nM.
For `Nc1nc2c(ncn2COC(CO)CO)c(=O)[nH]1` [GANCICLOVIR], the IC50 in the series with Human betaherpesvirus 5 (setting [11]) came to 2600 nM.
In the case of `C[C@H]1[C@@H](O)O[C@@H]2O[C@@]3(C)CC[C@H]4[C@H](C)CC[C@@H]1[C@@]24OO3` [ARTENIMOL], the IC50 is 2.5 nM with Plasmodium falciparum [1], 90 nM with CCRF-CEM [2], 270 nM in series [3] and more than 10000 nM in the series on Human betaherpesvirus 5 (setting [11]). Moreover, the “Ratio IC50” value in the series on CCRF-CEM [4] worked out at 3.

The IC50 is the concentration at which inhibition is half-maximal.

These data come from ChEMBL document CHEMBL3600384, “Highly potent artemisinin-derived dimers and trimers: Synthesis and evaluation of their antimalarial, antileukemia and antiviral activities” (Bioorg Med Chem, 2015).
